US12491170B2, “Stable treprostinil prodrugs” (United Therapeutics Corporation, priority 2020, dated 2025)

Assays:
[1] = Stability in human subcutaneous skin homogenate; details: for AUC: human
Experimental: The pool of skin homogenate was prepared by combining equal volumes of three lots that were tested in the initial skin homogenate lot assessment experiments.
A stock solution of calcein-AM was first prepared at 5 mM in DMSO, followed by a serial dilution into methanol at a concentration of 100 μM. 495 μL of skin homogenate was thawed and warmed to 37° C. A 5 μL aliquot of the 100 μM calcein-AM solution was spiked into the skin homogenate, for a final calcein-AM dosing concentration of 1 μM. After briefly mixing, 150 μL aliquots were removed in triplicate and transferred to 96-well Falcon plates. The plates were placed onto a Thermomixer and maintained at 37° C., with gentle shaking for the duration of the experiment. At each time point (0, 15, 30, 60, and 120 minutes), the plate was removed from the Thermomixer and transferred to a FLUOstar® plate reader, and the formation of calcein (Sigma) was monitored by fluorescence (490/515 nm). Calibration standards of calcein were prepared in distilled water by serial dilutions of a calcein DMSO stock at final concentrations ranging from 1 μM to 1 nM. All samples and standards were read concurrently (Table 13).
For each of the test articles, 495 μL of skin homogenate was added to triplicate centrifuge tubes. To each tube, 5 μL of a 100 μM solution of test article was added, for a final test article dosing concentration of 1 μM. The tubes were placed onto a Thermomixer and maintained at 37° C. with gentle shaking for the duration of the experiment. At each time point (0, 30, 60, and 120 minutes), a 100 μL aliquot was removed from each tube and combined with 200 μL of acetonitrile to stop the stability reaction. The tubes were mixed and centrifuged at 3000 rpm for 10 minutes. Aliquots of supernatant were removed and diluted 1:1 with distilled water containing internal standard (2 μM treprostinil-d4). Calibration standards for the treprostinil analysis were prepared for each test article in a surrogate matrix (supernatant from a mixture of 1:2 human plasma:acetonitrile), at concentrations ranging from 1 μM to 1 nM. Calibration standards were also diluted 1:1 with distilled water containing internal standard. The disappearance of each individual test article was monitored, as well as the formation of treprostinil (Table 14 and Table 15).

[2] = Stability in cryopreserved hepatocytes, dog
Experimental: (§1) Mixed-gender human cryopreserved hepatocytes, male Sprague-Dawley rat cryopreserved hepatocytes, and male Beagle dog cryopreserved hepatocytes were purchased from XenoTech. The hepatocytes were thawed and prepared according to the vendor's instructions, pooled into Krebs Henseleit buffer (KHB, pH 7.4), and kept on ice prior to the experiments. […] The final DMSO content in the incubation mixture was ≤0.1%. […] Aliquots of the test article were withdrawn (n=1) at 0, 15, 30, 60, and 120 minutes. […] Aliquots of 7-HC were withdrawn (n=1) at 0 and 15 minutes. The reaction was immediately terminated by adding two volumes of ice-cold acetonitrile (ACN) to the test article samples and three volumes of ACN containing internal standard to the positive control samples. The samples were then mixed and centrifuged to precipitate proteins. An aliquot of the supernatant was then diluted with water and analyzed by LC-MS/MS against calibration standards prepared in a matched matrix. […] All test article samples were analyzed for the dosed prodrugs as well as the drug, treprostinil. The test article concentration was compared to the concentration at time 0 to determine the percent of test article remaining at each time point. Half-lives and clearance values were calculated using GraphPad software, fitting to a single-phase exponential decay equation.

[3] = Stability in cryopreserved hepatocytes, rat
Experimental: as §1

[4] = Stability in cryopreserved hepatocytes, human
Experimental: as §1

[5] = male, Beagle, dog, 15 min, 100 μM, pH 7.4
[6] = male, Sprague-Dawley, rat, 15 min, 100 μM, pH 7.4
[7] = both, human, 15 min, 100 μM, pH 7.4

CCCCCC(CCC1C(O)CC2Cc3c(cccc3OCC(=O)O)CC21)OC(=O)OC (centres unmarked) [IV 3rd]
AUC [1]: 9.59 µmol·min/L

O=c1ccc2ccc(O)cc2o1 [7-Hydroxycoumarin, 7-hydroxycoumarin, reference compound]
Formation Rate of 7-HC-G (glucuronide) [2, 5]: 114 pmol/min/10^6 cells | Formation Rate of 7-HC-S (sulfate) [2, 5]: 35.9 pmol/min/10^6 cells | Formation Rate of 7-HC-G (glucuronide) [3, 6]: 91.4 pmol/min/10^6 cells | Formation Rate of 7-HC-S (sulfate) [3, 6]: 24.7 pmol/min/10^6 cells | Formation Rate of 7-HC-G (glucuronide) [4, 7]: 97.7 pmol/min/10^6 cells | Formation Rate of 7-HC-S (sulfate) [4, 7]: 10.8 pmol/min/10^6 cells

CCCCCC(O)CCC1C(O)CC2Cc3c(cccc3OCC(=O)NCC(=O)O)CC21 (centres unmarked) [VII orig]
AUC [1]: 0.14 µmol·min/L

CCCCCC(CCC1C(O)CC2Cc3c(cccc3OCC(=O)O)CC21)OC(=O)OC (centres unmarked) [IV 1st]
AUC [1]: 7.07 µmol·min/L

CCCCCC(CCC1C(O)CC2Cc3c(cccc3OCC(=O)O)CC21)OC(=O)OCCOC (centres unmarked) [XL]
Trep Concentration 0 min [1]: 0 µM | Trep Concentration 30 min [1]: 0.202 µM | Trep Concentration 60 min [1]: 0.329 µM | Trep Concentration 120 min [1]: 0.59 µM | AUC [1]: 38.57 µmol·min/L

CCCCCC(CCC1C(O)CC2Cc3c(cccc3OCC(=O)O)CC21)OC(=O)OC (centres unmarked) [IV 2nd]
AUC [1]: 62.69 µmol·min/L

CCCCCC(O)CCC1C(O)CC2Cc3c(cccc3OCC(=O)NCC(=O)O)CC21 (centres unmarked) [VII new]
AUC [1]: 0.00 µmol·min/L

CCCCCC(CCC1C(O)CC2Cc3c(cccc3OCC(=O)O)CC21)OC(=O)OCCOCCOC (centres unmarked) [XLI]
Trep Concentration 0 min [1]: 0 µM | Trep Concentration 30 min [1]: 0.0526 µM | Trep Concentration 60 min [1]: 0.091 µM | Trep Concentration 120 min [1]: 0.19 µM | AUC [1]: 11.37 µmol·min/L

C[C@]12CC[C@H]3[C@@H](CCC4=CC(=O)CC[C@@]43C)[C@@H]1CC[C@@H]2O [Testosterone, testosterone, reference compound]
Half-life (positive control) ([4]; human hepatocytes, 1 μM, control): 4.82 min

CCCCCC(CCC1C(O)CC2Cc3c(cccc3OCC(=O)O)CC21)OC(=O)NC (centres unmarked) [VIII]
Trep Concentration 0 min [1]: 0 µM | Trep Concentration 30 min [1]: 0 µM | Trep Concentration 60 min [1]: 0 µM | Trep Concentration 120 min [1]: 0 µM | AUC [1]: 0.00 µmol·min/L | Trep Concentration (μM) 0 min [2]: 0 µM | Trep Concentration (μM) 15 min [2]: 0 µM | Trep Concentration (μM) 30 min [2]: 0 µM | Trep Concentration (μM) 60 min [2]: 0 µM | Trep Concentration (μM) 120 min [2]: 0 µM | AUC ([2]; dog): 0.00 µmol·min/L | Trep Concentration (μM) 0 min [3]: 0 µM | Trep Concentration (μM) 15 min [3]: 0 µM | Trep Concentration (μM) 30 min [3]: 0 µM | Trep Concentration (μM) 60 min [3]: 0.00511 µM | Trep Concentration (μM) 120 min [3]: 0 µM | AUC ([3]; rat): 0.23 µmol·min/L | Trep Concentration (μM) 0 min [4]: 0 µM | Trep Concentration (μM) 15 min [4]: 0 µM | Trep Concentration (μM) 30 min [4]: 0 µM | Trep Concentration (μM) 60 min [4]: 0.00464 µM | Trep Concentration (μM) 120 min [4]: 0 µM | AUC ([4]; human): 0.21 µmol·min/L

CCCCCC(CCC1C(O)CC2Cc3c(cccc3OCC(=O)O)CC21)OCc1oc(=O)oc1C (centres unmarked) [LI]
Trep Concentration (μM) 0 min [2]: 0.0214 µM | Trep Concentration (μM) 15 min [2]: 0.627 µM | Trep Concentration (μM) 30 min [2]: 0.605 µM | Trep Concentration (μM) 60 min [2]: 0.537 µM | Trep Concentration (μM) 120 min [2]: 0.482 µM | AUC ([2]; dog): 61.80 µmol·min/L | Trep Concentration (μM) 0 min [3]: 0.327 µM | Trep Concentration (μM) 15 min [3]: 0.703 µM | Trep Concentration (μM) 30 min [3]: 0.61 µM | Trep Concentration (μM) 60 min [3]: 0.523 µM | Trep Concentration (μM) 120 min [3]: 0.464 µM | AUC ([3]; rat): 64.18 µmol·min/L | Trep Concentration (μM) 0 min [4]: 0.0425 µM | Trep Concentration (μM) 15 min [4]: 0.647 µM | Trep Concentration (μM) 30 min [4]: 0.626 µM | Trep Concentration (μM) 60 min [4]: 0.608 µM | Trep Concentration (μM) 120 min [4]: 0.55 µM | AUC ([4]; human): 67.97 µmol·min/L

CCCCCC(CCC1C(O)CC2Cc3c(cccc3OCC(=O)O)CC21)OC(=O)CCC(=O)O (centres unmarked) [XX new]
Trep Concentration 0 min [1]: 0 µM | Trep Concentration 30 min [1]: 0.00878 µM | Trep Concentration 60 min [1]: 0.0149 µM | Trep Concentration 120 min [1]: 0.0271 µM | AUC [1]: 1.75 µmol·min/L
